According to patent publication US20140228440A1, “1-AMINO-ALKYLCYCLOHEXANE DERIVATIVES FOR THE TREATMENT OF INFLAMMATORY SKIN DISEASES” (MERZ PHARMA GmbH & CO. KGaA, priority 2008, published 2014):

Assays:
Propionibacterium acnes = experiment: Log reduction assay; format: cell-based; conditions: 3.125% solution
Description: In order to determine the efficacy of Neramexane against a specific microorganism population (i.e., Propionibacterium acnes), a log reduction assay is performed. The organisms are prepared by inoculating the fluid thioglycolate (FTM). The microorganism is then incubated at 35.2±2.5° C. for 24 hours. The microbial suspension is adjusted to approximately 107 to 108 colony forming units (CFU) per mL and labeled as the stock suspension. […] Then […] is transferred into 11 mL of DI water to prepare a 3.125% solution. This solution is then inoculated with the microorganism and tested at time intervals of 30 seconds, 1 minute, and 5 minutes. One milliliter from each dilution is spread plated in duplicate onto tryptic soy agar with 5% sheep blood. The plates are incubated anaerobically at 35.2±2.5° C. for a minimum of 48 hours. The same procedure is repeated for the Phosphate Buffer Saline control. After the incubation period, all plates are counted to determine the number of microorganisms remaining at each time point. The concentration of each microorganism for the control and product is calculated for each interval. The log reduction is calculated to determine the change (reduction or increase) of the microorganism population relative to a starting inoculum. The minimum required bactericidal concentration is defined as a 3 log reduction from the initial inoculum.

dermal application sites = experiment: Local tolerability of topical formulation, 14 days of daily dermal treatment; format: in vivo, Göttingen minipigs
Description: The objective of this study is to evaluate the local tolerance of Neramexane mesylate in a topical formulation at different dose levels after 14 days of daily dermal treatment to minipigs.
The study is performed in 4 female Gottingen SPF minipigs (from Ellegaard Gottingen Minipigs Aps). Each animal has 5 application sites (25 cm^2) marked on the back and is dosed for 8 hours each day. Each test site is used for the same test item or placebo throughout the study. The test group is treated with Neramexane mesylate at the following concentrations: 0, 0.5, 2.5, 5.0 and 10.0% (w/w).
Clinical signs are recorded 2-4 hours post start of each treatment and the local dermal reactions (erythema, oedema) are evaluated prior to treatment. Body weight is recorded weekly (and also on Day 1 and at necropsy).

[1] = test system: Propionibacterium acnes (ATCC 11828); experiment: Quantitative suspension assay (bactericidal activity); format: cell-based; conditions: pH 5.5
Description: 1.0 ml of the bacterial test suspension (microbial count: 1.5−5.0×10^8 cfu/ml) and 1.0 ml distilled water is added to 8.0 ml of the product test solution. The stopwatch is started. At the end of the exposure time, 0.1 ml of the test mixture is added to 50 ml rinsing liquid (=test neutralization mixture, TNM, 10°). Two dilutions of the TNM are prepared by pipetting […] of TNM to 9.0 ml of tryptone-NaCl (represents a dilution 10^−2 of TNM before filtration) resp. 50 μl of TNM to 9.0 ml of tryptone-NaCl (represents a dilution 10^−3 of TNM before filtration). The TNM (in duplicate) and each of the dilutions are transferred to a membrane filter device fitted with a membrane filter (0.45 μm) and filtered immediately. Subsequently, the filter is washed with 150 ml distilled water. The membranes are transferred to agar plates. After incubation under appropriate conditions, colonies are counted and reported.
Neramexane-mesylate is tested at 4 different concentrations (w/w 0.1%, 0.5%, 2.0%, 5.0%) to assess its bactericidal activity against Propionibacterium acnes (ATCC 11828). In addition to the effect of the concentration of Neramexane, the relevance of the contact time with the bacterias is assessed at 4 different incubation times (5 min, 30 min, 6 h, 24 h).
After the desired incubation time, the complete elimination of the test compound from the assay is ensured by membrane filtration. Bacterial suspensions with a microbial count ranging from 1.5−5.0×10^8 cfu/ml are used. All assays are performed at the skin relevant pH of 5.5.
The read out is reduction of the bacterial number in the assay, expressed as log-reduction. This reduction of the bacterial count is correlated to the ability of a compound to kill the bacteria, thus, corresponding to its MBC value. A >5-fold log reduction is required for a surface-disinfection compound and a >3-fold log reduction for a hand-disinfection compound.

[2] = 0.5, 2.5, 5.0 and 10.0% (w/w), dermal, 14 days

CC1(C)CC(C)(C)CC(C)(N)C1.CS(=O)(=O)O [Neramexane mesylate]
% Reduction (Propionibacterium acnes; exposure time 30 sec): 91.6% | Concentration of Organism (CFU/mL) (Propionibacterium acnes; exposure time 30 sec): 1.8E+04 CFU/mL | Log Reduction (Propionibacterium acnes; exposure time 30 sec): 1.1 | % Reduction (Propionibacterium acnes; exposure time 1 min): 79.0% | Concentration of Organism (CFU/mL) (Propionibacterium acnes; exposure time 1 min): 4.4E+04 CFU/mL | Log Reduction (Propionibacterium acnes; exposure time 1 min): 0.7 | % Reduction (Propionibacterium acnes; exposure time 5 min): 100.0% | Concentration of Organism (CFU/mL) (Propionibacterium acnes; exposure time 5 min): <10 CFU/mL | Log Reduction (Propionibacterium acnes; exposure time 5 min): 4.3 | test item related changes (conclusion) (dermal application sites; 0.5%, 2.5%, 5% and 10% in a topical formulation, 14 Days): no test item related changes | clinical signs and body weight gain (dermal application sites; [2]): No test item related changes are observed | dermal skin reactions (erythema, oedema) (dermal application sites; [2]): no test item related dermal skin reactions are observed | gross necropsy (dermal application sites; [2]): no macroscopic changes are observed | histopathology evaluation of the dermal application sites (dermal application sites; [2]): no treatment-related macroscopic or microscopic findings | log-reduction ([1]; 0.1%, contact time 5 min): <1.41 | log-reduction ([1]; 0.1%, contact time 30 min): <1.41 | log-reduction ([1]; 0.1%, contact time 6 h): <1.41 | log-reduction ([1]; 0.1%, contact time 24 h): <1.41 | log-reduction ([1]; 0.5%, contact time 5 min): <1.41 | log-reduction ([1]; 0.5%, contact time 30 min): <1.41 | log-reduction ([1]; 0.5%, contact time 6 h): 2.6 | log-reduction ([1]; 2.0%, contact time 5 min): <1.41 | log-reduction ([1]; 2.0%, contact time 6 h): >5.48 | log-reduction ([1]; 2.0%, contact time 24 h): >5.48 | log-reduction ([1]; 5.0%, contact time 5 min): 4.33 | log-reduction ([1]; 5.0%, contact time 30 min): >5.48 | log-reduction ([1]; 5.0%, contact time 6 h): >5.48 | log-reduction ([1]; 5.0%, contact time 24 h): >5.48
